Reference: patent US20140023611A1 (priority 2010, published 2014)

What follows are compounds tested against T1, rat NaP2b (SLC34A2) (Rattus norvegicus, UniProt Q9JJ09) (assay: Inhibition of NaP2b-mediated Pi (33P) uptake in transfected HEK293 cells, rat NaP2b). Settings: 33P Pi uptake, 0.1 mM phosphate, value given as pIC50 range.
T1 construct: host or cells: HEK293
T1 sequence (Q9JJ09 1-695): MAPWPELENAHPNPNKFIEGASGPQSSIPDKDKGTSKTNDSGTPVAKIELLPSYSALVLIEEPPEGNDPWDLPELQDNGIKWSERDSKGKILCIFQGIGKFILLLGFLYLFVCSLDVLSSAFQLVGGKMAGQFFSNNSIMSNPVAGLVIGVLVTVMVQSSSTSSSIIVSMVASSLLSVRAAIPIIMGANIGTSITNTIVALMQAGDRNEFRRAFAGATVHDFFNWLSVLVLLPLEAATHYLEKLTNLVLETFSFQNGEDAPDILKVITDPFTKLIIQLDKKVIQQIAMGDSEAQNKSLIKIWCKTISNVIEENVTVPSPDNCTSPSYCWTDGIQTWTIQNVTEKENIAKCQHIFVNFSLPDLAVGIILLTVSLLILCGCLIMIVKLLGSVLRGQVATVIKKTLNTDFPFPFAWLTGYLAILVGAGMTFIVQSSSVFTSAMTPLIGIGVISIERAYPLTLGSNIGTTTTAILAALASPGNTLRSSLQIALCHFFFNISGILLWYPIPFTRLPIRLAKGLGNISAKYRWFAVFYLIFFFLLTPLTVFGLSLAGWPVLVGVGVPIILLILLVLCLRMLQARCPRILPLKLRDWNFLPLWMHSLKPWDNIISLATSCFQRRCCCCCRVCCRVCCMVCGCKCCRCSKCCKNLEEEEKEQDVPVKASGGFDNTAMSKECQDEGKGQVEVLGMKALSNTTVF
Format: cell-based
Outline: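 HEK293 cells were transiently transfected with NaP2b cDNA using Lipofectamine and grown near confluence. Compounds were tested at twelve concentrations from 0.1 nM to 30 uM in duplicate, and 33P-phosphate uptake was counted by scintillation after lysis. Results are expressed as pIC50.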

SMILES	IC50
O=C(O)CCSCc1cccc(C(=O)Nc2ccc(N3CCCCC3)cc2-c2cc(C(=O)Nc3cccc(C(F)(F)F)c3)ccn2)c1 [Example 84]	1 to 7.94 µM
CCN(CC)c1ccc(NC(=O)c2cccc(CCCOCCOCCOCCOCCC(=O)NCCOCCOCCOCCOCCOCCOCCOC)c2)c(-c2cc(C(=O)NCc3cccc(C(F)(F)F)c3)ccn2)c1 [Example 260, 2-(5-(diethylamino)-2-(3-(24-oxo-2,5,8,11,17,20,27,30,33,36-undecaoxa-23-azanonatriacontan-39-yl)benzamido)phenyl)-N-(3-(trifluoromethyl)benzyl)isonicotinamide]	1 to 7.94 µM
CN(CCN1CCOCC1)C(=O)c1cccc(C(=O)Nc2ccc(N3CCCCC3)cc2-c2cc(OCc3cccc(C(F)(F)F)c3)ccn2)c1 [Example 99]	10 to 31.6 µM
O=C(NCc1cccc(C(F)(F)F)c1)c1ccnc(-c2cc(N3CCCCC3)ccc2NC(=O)c2cccc(CSCCCS(=O)(=O)O)c2)c1 [Example 91]	10 to 31.6 µM
CCN(CC)c1ccc(NC(=O)c2cccc(C(=O)N(C)CCN(C)CCOCCOCCOCCNC(=O)C3CCOCC3)c2)c(-c2cc(C(=O)N[C@H]3CCCc4ccccc43)ccn2)c1 [Example 343, (S)—N^1-(4-(Diethylamino)-2-(4-(1,2,3,4-tetrahydronaphthalen-1-ylcarbamoyl)pyridin-2-yl)phenyl)-N^3-methyl-N^3-(14-methyl-1-oxo-1-(tetrahydro-2H-pyran-4-yl)-5,8,11-trioxa-2,14-diazahexadecan-16-yl)isophthalamide]	1 to 7.94 µM
O=C(NCc1cccc(C(F)(F)F)c1)c1ccnc(-c2cc(N3CCCCC3)ccc2NC(=O)c2cccc(Cn3cc(CCO)nn3)c2)c1 [Example 75, 2-(2-(3-((4-(2-Hydroxyethyl)-1H-1,2,3-triazol-1-yl)methyl)benzamido)-5-(piperidin-1-yl)phenyl)-N-(3-(trifluoromethyl)benzyl)isonicotinamide]	10 to 31.6 µM
O=C(O)CCSCc1cccc(C(=O)Nc2ccc(N3CCCCC3)cc2-c2cc(C(=O)NCc3cc(C(F)(F)F)ccc3F)ccn2)c1 [Example 1.30]	1 to 7.94 µM
O=C(O)CCSCc1cccc(C(=O)Nc2ccc(N3CCCCC3)cc2-c2cc(C(=O)NCc3cccc(-n4cccn4)c3)ccn2)c1 [Example 1.21]	10 to 31.6 µM
CCN(CC)c1ccc(NC(=O)c2cccc(CCCOCCOCCOCCOCCNS(=O)(=O)c3ccc(C(=O)N4CCN(CCOCCOCCOCCOCCOCCOCCOC)C(=O)C4)cc3)c2)c(-c2cc(C(=O)NCc3cccc(C(F)(F)F)c3)ccn2)c1 [Example 288, 2-(2-(3-(1-(4-(4-(2,5,8,11,14,17,20-heptaoxadocosan-22-yl)-3-oxopiperazine-1-carbonyl)phenylsulfonamido)-3,6,9,12-tetraoxapentadecan-15-yl)benzamido)-5-(diethylamino)phenyl)-N-(3-(trifluoromethyl)benzyl)isonicotinamide]	1 to 7.94 µM
CCN(CC)c1ccc(NC(=O)c2cccc(CCCOCCOCCOCCOCCNC(=O)c3cccnc3)c2)c(-c2cc(C(=O)N[C@H]3CCCc4ccccc43)ccn2)c1 [Example 324]	< 1 µM
CN(C)c1ccc(CNC(=O)c2ccnc(-c3cc(N4CCCCC4)ccc3NC(=O)c3cccc(CSCCC(=O)O)c3)c2)cc1 [Example 1.10]	1 to 7.94 µM
COCCOCCOCCOCCOCCOCCOCCN(C)C(=O)C1CCN(CCN(C)C(=O)c2cccc(C(=O)Nc3ccc(N4CCCCC4)cc3-c3cc(C(=O)N[C@H]4CCCc5ccccc54)ccn3)c2)CC1 [Example 334, (S)—N^1-(2-(4-(2,5,8,11,14,17,20-Heptaoxadocosan-22-yl(methyl)carbamoyl)piperidin-1-yl)ethyl)-N1-methyl-N3-(4-(piperidin-1-yl)-2-(4-(1,2,3,4-tetrahydronaphthalen-1-ylcarbamoyl)pyridin-2-yl)phenyl)isophthalamide]	10 to 31.6 µM
O=C(NCc1cccc(C(F)(F)F)c1)c1ccnc(-c2cc(N3CCCCC3)ccc2NC(=O)c2cccc(CSCCOCCOCCOCCOCCC(=O)N3CCC(N4CCOCC4)CC3)c2)c1 [Example 154, 2-(2-(3-(17-(4-morpholinopiperidin-1-yl)-17-oxo-5,8,11,14-tetraoxa-2-thiaheptadecyl)benzamido)-5-(piperidin-1-yl)phenyl)-N-(3-(trifluoromethyl)benzyl)isonicotinamide]	10 to 31.6 µM

Other lines, results leading:

IC50	SMILES
10 to 31.6 µM	CC(=O)N1CCN(C(=O)c2cccc(C(=O)Nc3ccc(N4CCCCC4)cc3-c3cc(C(=O)NCc4cccc(C(F)(F)F)c4)ccn3)c2)CC1 [Example 4.6, 2-(2-(3-(4-Acetylpiperazine-1-carbonyl)benzamido)-5-(piperidin-1-yl)phenyl)-N-(3-(trifluoromethyl)benzyl)isonicotinamide]
10 to 31.6 µM	O=C(O)CCSCc1cccc(C(=O)Nc2ccc(N3CCCCC3)cc2-c2cc(NCCc3cccc(C(F)(F)F)c3)ncn2)c1 [Example 3.3, 3-((3-((4-(Piperidin-1-yl)-2-(6-((3-(trifluoromethyl)phenethyl)amino)pyrimidin-4-yl)phenyl)carbamoyl)benzyl)thio)propanoic acid]
1 to 7.94 µM	O=C(O)c1ccc(SCc2cccc(C(=O)Nc3ccc(N4CCCCC4)cc3-c3cc(C(=O)NCc4cccc(C(F)(F)F)c4)ccn3)c2)cc1 [Example 8.23]
1 to 7.94 µM	O=C(NCc1cccc(C(F)(F)F)c1)c1ccnc(-c2cc(N3CCCCC3)ccc2NC(=O)c2cccc(C(=O)N(CCN3CCOCC3)C3CC3)c2)c1 [Example 4.11, N1-Cyclopropyl-N1-(2-morpholinoethyl)-N3-(4-(piperidin-1-yl)-2-(4-((3-(trifluoromethyl)benzyl)carbamoyl)pyridin-2-yl)phenyl)isophthalamide]
1 to 7.94 µM	COCCNC(=O)[C@H]1CCCN(C(=O)c2cccc(C(=O)Nc3ccc(N4CCCCC4)cc3-c3cc(C(=O)NCc4cccc(C(F)(F)F)c4)ccn3)c2)C1 [Example 4.14, (S)-2-(2-(3-(3-((2-Methoxyethyl)carbamoyl)piperidine-1-carbonyl)benzamido)-5-(piperidin-1-yl)phenyl)-N-(3-(trifluoromethyl)benzyl)isonicotinamide]
10 to 31.6 µM	COCCNC(=O)CCSCc1cccc(C(=O)Nc2ccc(N3CCCCC3)cc2-c2cc(C(=O)NCc3cccc(C(F)(F)F)c3)ccn2)c1 [Example 4.17, 2-(2-(3-(((3-((2-Methoxyethyl)amino)-3-oxopropyl)thio)methyl)benzamido)-5-(piperidin-1-yl)phenyl)-N-(3-(trifluoromethyl)benzyl)isonicotinamide]
1 to 7.94 µM	CN(CCN1CCN(C(=O)OC(C)(C)C)CC1)C(=O)c1cccc(C(=O)Nc2ccc(N3CCCCC3)cc2-c2cc(C(=O)NCc3cccc(C(F)(F)F)c3)ccn2)c1 [Example 4.5, Tert-butyl 4-(2-(N-methyl-3-((4-(piperidin-1-yl)-2-(4-((3-(trifluoromethyl)benzyl)carbamoyl)pyridin-2-yl)phenyl)carbamoyl)benzamido)ethyl)piperazine-1-carboxylate]
1 to 7.94 µM	CCN(CCN1CCOCC1)C(=O)c1cccc(C(=O)Nc2ccc(N3CCCCC3)cc2-c2cc(C(=O)NCc3cccc(C(F)(F)F)c3)ccn2)c1 [Example 4.8, N1-Ethyl-N1-(2-morpholinoethyl)-N3-(4-(piperidin-1-yl)-2-(4-((3-(trifluoromethyl)benzyl)carbamoyl)pyridin-2-yl)phenyl)isophthalamide]
